In patent US20260078103A1, “ISOQUINOLONES AS PI3K INHIBITORS” (OnKure, Inc., priority 2022, published 2026):
Like-named read-outs stand apart in the source and are kept apart here.

Key:
Assay type in all cases: cell-based
[1] = system: T47D cells expressing mutant PI3Ka (H1047R); test: In vitro cell proliferation, T47D cells (CellTiter-Glo); settings: inhibition of proliferation, read-out: Avg T-47D EC50
Outline: (§1)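 EC50 values derive from a four-parameter logistic fit of luminescence-based (CellTiter-Glo) inhibition, referenced to 0.1% DMSO and 10 uM Alpelisib controls. Compound exposure lasted 72 h at 37 °C.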

[2] = system: SKBR3 cells express WT PI3Ka; test: In vitro cell proliferation, SKBR3 cells (CellTiter-Glo); settings: inhibition of proliferation
Outline: as §1

[3] = system: phosphorylation of AKT (pAKT) in T47D cells expressing mutant PI3Ka (H1047R); test: In vitro cell pAKT (Ser473) HTRF, T47D cells; settings: cellular pAKT, T47D cells, mutant PI3Ka (H1047R), 6 hours, read-out: Avg T-47D IC50
Outline: (§2)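 Cells seeded on plates pre-stamped with 10-point compound dilutions, then grown 6 h at 37 °C (T47D in RPMI/10% FBS/insulin; SKBR3 in McCoy's 5a/10% FBS). Lysates read for pAKT Ser473 by HTRF after overnight antibody incubation. Inhibition normalised to 0.1% DMSO and 10 uM alpelisib; IC50 by four-parameter fit.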

[4] = system: phosphorylation of AKT (pAKT) in SKBR3 cells express WT PI3Ka; test: In vitro cell pAKT (Ser473) HTRF, SKBR3 cells; settings: cellular pAKT
Outline: as §2

Structure (SMILES) | EC50 ([1]; 72 hours) [µM] | EC50 ([2]; 72 hours) [µM] | IC50 [3] [µM] | IC50 ([4]; 6 hours) [µM] | EC50 ([2]; Homo sapiens, SK-BR-3, 72 h) [µM] | IC50 ([4]; Homo sapiens, SK-BR-3, 6 h) [µM] | EC50 ([1]; Homo sapiens, T47D, 72 h) [µM] | IC50 ([3]; Homo sapiens, T47D, 6 h) [µM]
Cc1cc(C(C)Nc2ccc(Cl)nc2C(=O)O)c2cc(N3Cc4ccc(F)cc4C3)n(C)c(=O)c2c1 (single isomer, unassigned) [Example 128] | 0.001 to 0.5 | 2 to 15 | 0.001 to 0.5 | 2 to 15 |  |  |  | 
Cc1cc(C(C)Nc2ccccc2C(=O)O)c2cc(N3CCN(C(=O)OC(C)C)CC3)n(C)c(=O)c2c1 (single isomer, unassigned) [Example 131] | 2 to 15 | > 15 | > 15 | > 15 |  |  |  | 
CCOc1ccc(-c2cc3c(C(C)Nc4ccccc4C(=O)O)cc(C)cc3c(=O)n2C)cn1 (single isomer, unassigned) [Example 132] | 0.001 to 0.5 |  | 0.001 to 0.5 |  | > 15 | > 15 |  | 
CCOc1ccc(-c2cc3c(C(C)Nc4ccccc4C(=O)O)cc(C)cc3c(=O)n2C)cn1 (single isomer, unassigned) [Example 133] | 2 to 15 | > 15 | > 15 | > 15 |  |  |  | 
Cc1cc(C(C)Nc2ccccc2C(=O)O)c2cc(N3CCN4C(=O)CCC4C3)n(C)c(=O)c2c1 (single isomer, unassigned) [Example 134] |  |  |  |  | > 15 | > 15 | 2 to 15 | > 15
CC(=O)N1CCC2(CC1)CCN(c1cc3c(C(C)Nc4ccccc4C(=O)O)cc(C)cc3c(=O)n1C)CC2 (single isomer, unassigned) [Example 135] | 2 to 15 | > 15 | > 15 | > 15 |  |  |  | 
CC(=O)N1CCC2(CC1)CCN(c1cc3c(C(C)Nc4ccccc4C(=O)O)cc(C)cc3c(=O)n1C)CC2 (single isomer, unassigned) [Example 136] | 0.001 to 0.5 | 2 to 15 | 0.001 to 0.5 | 2 to 15 |  |  |  | 
Cc1cc(C(C)Nc2ccccc2C(=O)O)c2cc(N3CCN4CCC[C@@H]4C3)n(C)c(=O)c2c1 (single isomer, unassigned) [Example 137] |  |  |  |  | > 15 | > 15 | 0.5 to 2 | 0.001 to 0.5
Cc1cc(C(C)Nc2ccccc2C(=O)O)c2cc(N3CCN4CCC[C@H]4C3)n(C)c(=O)c2c1 (single isomer, unassigned) [Example 138] | > 15 |  | > 15 |  | > 15 | > 15 |  | 
Cc1cc(C(C)Nc2ccccc2C(=O)O)c2cc(N3CCN4CCC[C@H]4C3)n(C)c(=O)c2c1 (single isomer, unassigned) [Example 139] | 0.5 to 2 | > 15 | 0.5 to 2 | > 15 |  |  |  | 
Cc1cc(C(C)Nc2ccccc2C(=O)O)c2cc(N3CCN4C(=O)OC[C@H]4C3)n(C)c(=O)c2c1 (single isomer, unassigned) [Example 141] | > 15 |  | > 15 |  | > 15 | > 15 |  | 
Cc1cc(C(C)Nc2ccccc2C(=O)O)c2cc(N3CCN4C(=O)OC[C@H]4C3)n(C)c(=O)c2c1 (single isomer, unassigned) [Example 142] | 0.5 to 2 | > 15 | 2 to 15 | > 15 |  |  |  | 
Cc1cc(C(C)Nc2ccccc2C(=O)O)c2cc(C#Cc3cccc(Cl)c3)n(C)c(=O)c2c1 (single isomer, unassigned) [Example 143] |  |  | > 15 |  | > 15 | > 15 | > 15 | 
Cc1cc(C(C)Nc2ccccc2C(=O)O)c2cc(C#Cc3cccc(Cl)c3)n(C)c(=O)c2c1 (single isomer, unassigned) [Example 144] | > 15 | > 15 | 0.5 to 2 | > 15 |  |  |  | 
Cc1cc(C(C)Nc2ccccc2C(=O)O)c2cc(N3CCN(c4ccc(C)nc4)CC3)n(C)c(=O)c2c1 (single isomer, unassigned) [Example 145] |  |  |  |  | 2 to 15 | 2 to 15 | 0.001 to 0.5 | 0.001 to 0.5
Cc1cc(C(C)Nc2ccccc2C(=O)O)c2cc(N3CCN(c4ccc(C)nc4)CC3)n(C)c(=O)c2c1 (single isomer, unassigned) [Example 146] | 2 to 15 | > 15 | > 15 | > 15 |  |  |  | 
Cc1cc(C(C)Nc2ccccc2C(=O)O)c2cc(N3CCN(C(=O)OC(C)C)CC3)n(C)c(=O)c2c1 (single isomer, unassigned) [Example 149] | 0.001 to 0.5 | 2 to 15 | 0.001 to 0.5 | 2 to 15 |  |  |  | 
Cc1cc(C(C)Nc2ccccc2C(=O)O)c2cc(N3CCS(=O)(=O)CC3)n(C)c(=O)c2c1 (single isomer, unassigned) [Example 150] | 2 to 15 |  | 2 to 15 |  | > 15 | > 15 |  | 
Cc1cc(C(C)Nc2ccccc2C(=O)O)c2cc(N3CCS(=O)(=O)CC3)n(C)c(=O)c2c1 (single isomer, unassigned) [Example 151] | > 15 | > 15 | > 15 | > 15 |  |  |  | 
COC1(C)CCN(c2cc3c(C(C)Nc4ccccc4C(=O)O)cc(C)cc3c(=O)n2C)CC1 (single isomer, unassigned) [Example 153] | 0.001 to 0.5 | 2 to 15 | 0.001 to 0.5 | 2 to 15 |  |  |  | 
COC1(C)CCN(c2cc3c(C(C)Nc4ccccc4C(=O)O)cc(C)cc3c(=O)n2C)CC1 (single isomer, unassigned) [Example 154] | 2 to 15 | > 15 | > 15 | > 15 |  |  |  | 
COc1ccc(-c2cc3c(C(C)Nc4ccccc4C(=O)O)cc(C)cc3c(=O)n2C)cn1 (single isomer, unassigned) [Example 155] | 0.001 to 0.5 |  | 0.001 to 0.5 |  | > 15 | > 15 |  | 
COc1ccc(-c2cc3c(C(C)Nc4ccccc4C(=O)O)cc(C)cc3c(=O)n2C)cn1 (single isomer, unassigned) [Example 156] | 2 to 15 | > 15 | 2 to 15 | > 15 |  |  |  | 
Cc1cc(C(C)Nc2ccccc2C(=O)O)c2cc(N3CCC4(CCOCC4)CC3)n(C)c(=O)c2c1 (single isomer, unassigned) [Example 166] | 2 to 15 | > 15 | 2 to 15 | > 15 |  |  |  | 
Cc1cc(C(C)Nc2ccccc2C(=O)O)c2cc(N3CCC4(CCOCC4)CC3)n(C)c(=O)c2c1 (single isomer, unassigned) [Example 167] | 0.001 to 0.5 | 2 to 15 | 0.001 to 0.5 | 2 to 15 |  |  |  | 
Cc1cc(C(C)Nc2ccccc2C(=O)O)c2cc(N3CCC4(CCCCO4)CC3)n(C)c(=O)c2c1 (single isomer, unassigned) [Example 168] | 0.001 to 0.5 | > 15 | 0.001 to 0.5 | 2 to 15 |  |  |  | 
Cc1cc(C(C)Nc2ccccc2C(=O)O)c2cc(N3CCC4(CCCCO4)CC3)n(C)c(=O)c2c1 (single isomer, unassigned) [Example 169] | > 15 | > 15 | 2 to 15 | > 15 |  |  |  | 
Cc1cc(C(C)Nc2ccccc2C(=O)O)c2cc(N3Cc4ccc(F)c(F)c4C3)n(C)c(=O)c2c1 (single isomer, unassigned) [Example 177] | 2 to 15 |  | > 15 |  | > 15 | > 15 |  | 
